Experimental data: the supplement of paper PMC13380429

Columns and labels:
[1] = test system: A549-ACE2 infected with SARS-CoV-2; experiment: cell count relative to DMSO; higher = less toxic; conditions: 24 h
Caco-2 [2] = experiment: cell viability relative to DMSO; higher = less toxic; conditions: 72 h
Calu-3 [3] = experiment: as above; conditions: 72 h
HepG2 [4] = experiment: as above; conditions: 72 h
U2OS [5] = experiment: as above; conditions: 72 h
Vero E6 [6] = experiment: as above; conditions: 72 h
[7] = test system: A549-ACE2 infected with SARS-CoV-2; experiment: SARS-CoV-2 infection rate relative to DMSO; higher = more infection; conditions: 24 h
A549-ACE2 [8] = experiment: drug-induced phospholipidosis relative to tamoxifen; higher = more phospholipidosis
[9] = test system: A549-ACE2 infected with SARS-CoV-2; experiment: morphology score (similarity to uninfected cells); higher = more like uninfected cells; conditions: 24 h
Caco-2 [10] = experiment: relative viability EC50 (midpoint between 100% and the lowest measured viability); higher = less toxic; conditions: 72 h
Calu-3 [11] = experiment: as above; conditions: 72 h
U2OS [12] = experiment: as above; conditions: 72 h
Vero E6 [13] = experiment: as above; conditions: 72 h
Caco-2 [14] = experiment: drug sensitivity score (DSS) for viability; higher = more toxic; extreme values may be limits of the assay; conditions: 72 h
Calu-3 [15] = experiment: as above; conditions: 72 h
HepG2 [16] = experiment: as above; conditions: 72 h
U2OS [17] = experiment: as above; conditions: 72 h
Vero E6 [18] = experiment: as above; conditions: 72 h
A549-ACE2 [19] = experiment: phospholipidosis EC50; higher = less potent phospholipidosis inducer
HepG2 [20] = experiment: relative viability EC50 (midpoint between 100% and the lowest measured viability); higher = less toxic; conditions: 72 h

Clc1cc(Cl)c(OCC#CI)cc1Cl [haloprogin]
Conditions | SARS-CoV-2 infection rate, [7] [%] | cell count, [1] [%] | cell viability, Caco-2 [2] [%] | cell viability, Calu-3 [3] [%] | cell viability, HepG2 [4] [%] | cell viability, U2OS [5] [%] | cell viability, Vero E6 [6] [%] | morphology score, [9]
1 nM | – | – | 109 | 84 | 91.8 | 95.6 | 95.3 | –
10 nM | – | – | 90.2 | 88.5 | 104 | 95.2 | 96.9 | –
100 nM | – | – | 95.1 | 99.9 | 116 | 97.5 | 90.6 | –
0.3 µM | 97 | 100 | – | – | – | – | – | 0.18
1000 nM | – | – | 130 | 95.9 | 91 | 95.2 | 101 | –
3 µM | 83 | 100 | – | – | – | – | – | 0.44
10 µM | 71 | 79 | – | – | – | – | – | 0.28
10000 nM | – | – | 97 | 110 | 59.5 | 47.1 | 93.9 | –
30 µM | 15 | 15 | – | – | – | – | – | 0.1

drug-induced phospholipidosis [%], A549-ACE2 [8]
Conditions | 0.3 µM | 0.833333 µM | 3.33333 µM | 6.66667 µM | 10 µM
24 h | 4.53 | 2.7 | 5.33 | 17.8 | 23.3
48 h | -1.51 | -0.64 | 1.31 | 14.4 | 7.74
72 h | 5.04 | -1.02 | -0.916 | 2.19 | -6.87

Conditions | drug sensitivity score | relative viability EC50 [µM]
Caco-2 [10] | – | > 10
Caco-2 [14] | 0 | –
Calu-3 [11] | – | > 10
Calu-3 [15] | 0 | –
HepG2 [16] | 3.4 | –
U2OS [12] | – | 2.42
U2OS [17] | 3.6 | –
Vero E6 [13] | – | > 10
Vero E6 [18] | 0 | –

Cc1ccc(NC(=O)c2ccc(CN3CCN(C)CC3)cc2)cc1Nc1nccc(-c2cccnc2)n1 [imatinib]
Conditions | morphology score, 0.3 µM | morphology score, 3 µM | morphology score, 10 µM | morphology score, 30 µM | phospholipidosis EC50, 24 h [µM] | phospholipidosis EC50, 48 h [µM] | phospholipidosis EC50, 72 h [µM]
A549-ACE2 [19] | – | – | – | – | 6.11 | 13 | 10
[9] | 0.28 | 0.55 | 0.73 | -0.03 | – | – | –

Conditions | drug sensitivity score
Calu-3 [15] | 0.1
HepG2 [16] | 2.4
U2OS [17] | 0
Vero E6 [18] | 0

Cc1ccc(NC(=O)c2ccc(CN3CCN(C)CC3)cc2)cc1Nc1nc(-c2cccnc2)cs1 [masitinib]
Conditions | SARS-CoV-2 infection rate, [7] [%] | cell count, [1] [%] | cell viability, Caco-2 [2] [%] | cell viability, Calu-3 [3] [%] | cell viability, HepG2 [4] [%] | cell viability, U2OS [5] [%] | cell viability, Vero E6 [6] [%] | morphology score, [9]
1 nM | – | – | 104 | 107 | 105 | 106 | 105 | –
10 nM | – | – | 99.5 | 88 | 103 | 101 | 102 | –
100 nM | – | – | 99.1 | 97.4 | 99.6 | 104 | 101 | –
0.3 µM | 98 | 88 | – | – | – | – | – | 0.14
1000 nM | – | – | 97.3 | 97.9 | 101 | 98 | 98 | –
10000 nM | – | – | 72 | 75.1 | 43.9 | 93.2 | 88.9 | –

A549-ACE2 [8], 0.3 µM
Conditions | drug-induced phospholipidosis [%]
24 h | -0.73
48 h | 0.9
72 h | 2.47

Conditions | drug sensitivity score | relative viability EC50 [µM]
Caco-2 [14] | 1.6 | –
Calu-3 [11] | – | > 10
Calu-3 [15] | 1.2 | –
HepG2 [16] | 2.9 | –
HepG2 [20] | – | 3.29
U2OS [12] | – | > 10
U2OS [17] | 0 | –
Vero E6 [13] | – | > 10
Vero E6 [18] | 0.1 | –

CNC(=O)c1cc(Oc2ccc(NC(=O)Nc3cc(C(C)(C)C)nn3-c3ccc4ncccc4c3)c(F)c2)ccn1 [rebastinib]
Conditions | SARS-CoV-2 infection rate, [7] [%] | cell count, [1] [%] | cell viability, Caco-2 [2] [%] | cell viability, Calu-3 [3] [%] | cell viability, HepG2 [4] [%] | cell viability, U2OS [5] [%] | cell viability, Vero E6 [6] [%] | morphology score, [9]
1 nM | – | – | 98.4 | 100 | 104 | 97.9 | 98.2 | –
10 nM | – | – | 89.9 | 97.5 | 102 | 96.4 | 96.8 | –
0.1 µM | 97 | 104 | – | – | – | – | – | 0.31
100 nM | – | – | 95.4 | 105 | 108 | 97 | 102 | –
0.3 µM | 92 | 103 | – | – | – | – | – | 0.24
1 µM | 92 | 102 | – | – | – | – | – | 0.22
1000 nM | – | – | 114 | 90.8 | 28.6 | 108 | 112 | –
3 µM | 95 | 96 | – | – | – | – | – | 0.12
10000 nM | – | – | 30 | 42.6 | 6.1 | 9.6 | 9.9 | –

drug-induced phospholipidosis [%], A549-ACE2 [8]
Conditions | 0.3 µM | 0.833333 µM | 3.33333 µM | 6.66667 µM | 10 µM
24 h | -0.9 | -2.36 | -1.54 | -1.91 | -2.66
48 h | -0.69 | -2.5 | -1.43 | -0.4 | 0.77
72 h | 0.586 | -3.51 | -2.2 | 1.53 | 5.87

Conditions | drug sensitivity score | relative viability EC50 [µM]
Caco-2 [10] | – | 3.94
Caco-2 [14] | 3.1 | –
Calu-3 [11] | – | 1.94
Calu-3 [15] | 4.6 | –
HepG2 [16] | 13.3 | –
HepG2 [20] | – | 0.638
U2OS [12] | – | 3.62
U2OS [17] | 4.4 | –
Vero E6 [13] | – | 3.74
Vero E6 [18] | 4.3 | –

CO[C@H]1C[C@H](O[C@@H]2/C(C)=C/C[C@@H]3C[C@@H](C[C@]4(CC[C@H](C)[C@@H](C5CCCCC5)O4)O3)OC(=O)[C@@H]3C=C(C)/C(=N/O)[C@H]4OC/C(=C\C=C\[C@@H]2C)[C@]43O)O[C@@H](C)[C@@H]1O [selamectin]
Conditions | SARS-CoV-2 infection rate, [7] [%] | cell count, [1] [%] | cell viability, Caco-2 [2] [%] | cell viability, Calu-3 [3] [%] | cell viability, HepG2 [4] [%] | cell viability, U2OS [5] [%] | cell viability, Vero E6 [6] [%] | morphology score, [9]
1 nM | – | – | 112 | 101 | 113 | 103 | 104 | –
10 nM | – | – | 119 | 106 | 120 | 98 | 104 | –
100 nM | – | – | 105 | 96.2 | 117 | 103 | 104 | –
0.3 µM | 103 | 96 | – | – | – | – | – | -0.14
1000 nM | – | – | 79.9 | 104 | 121 | 98.8 | 107 | –
3 µM | 79 | 105 | – | – | – | – | – | 0.43
10 µM | 48 | 93 | – | – | – | – | – | 0.75
10000 nM | – | – | 86.5 | 91.2 | 84.1 | 90.4 | 86.7 | –
30 µM | 15 | 111 | – | – | – | – | – | 0.7

Conditions | drug sensitivity score | relative viability EC50 [µM]
Caco-2 [10] | – | > 10
Caco-2 [14] | 2.5 | –
Calu-3 [11] | – | > 10
Calu-3 [15] | 0 | –
HepG2 [16] | 0.1 | –
HepG2 [20] | – | > 10
U2OS [12] | – | > 10
U2OS [17] | 0 | –
Vero E6 [13] | – | > 10
Vero E6 [18] | 0 | –
